Data as given in US9872873B2, “Process for preparing stable pharmaceutical compositions of compounds susceptible to hydrolysis” (Fresenius Kabi Oncology Limited, priority 2012, dated 2018).

How the values were obtained:
Assay type in all cases: physicochemical
[1] = Solution stability profile of Azacitidine in water at −1° C. to 0° C.; design: RGU / Specified Imp-1 / Specified Imp-2 / RGU-CHO / Total Impurity (excluding RGU & RGU-CHO): unit not given here; conditions: for RGU / RGU-CHO / Specified Imp-1 / Specified Imp-2 / Total Impurity (excluding RGU & RGU-CHO): water, −1° C. to 0° C.
Description: It is evident from the Table I that Fabrication of the Azacitidine in water at room temperature led to a significant increase in the level of “RGU-CHO” in the Bulk Solution. Further, in order to control the degradation rate of Azacitidine, another batch was manufactured in water at possible temperature i.e. −1° C. to 0° C. by dissolving Azacitidine (4 mg/mL) and Mannitol (4 mg/mL) in water at −1° C. to 0° C. and the solution stability results are shown below in Table II.

[2] = Solution stability of Azacitidine bulk solution in Water:Acetonitrile 80:20% v/v at −5 ± 2° C.; design: RGU / RGU-CHO: unit not given beside the values
Description: (§1) In another aspect of the invention the fabrication temperature was controlled at −5±3° C., −5±2° C., −5±1° C. preferably −5±2° C. using Water and Acetonitrile ratio in between 95:5 to 70:30 preferably 80:20 (% v/v) respectively. The hold time data of Azacitidine, Decitabine and Bendamustine obtained in solvent mixture of Water and Acetonitrile at a ratio of 80:20 (% v/v), when fabricated at a temperature range of −5±2° C. is presented in Table VIII, IX, X respectively.

[3] = Solution stability profile of Azacitidine in water at 25° C.; design: unit not given here
Description: In one embodiment of the invention, a batch of Azacitidine bulk solution was prepared by dissolving the compound (4 mg/mL) and Mannitol (4 mg/mL) in water at room temperature. […]

[4] = Solution stability of Bendamustine Hydrochloride bulk solution in Water:Acetonitrile 80:20% v/v at −5 ± 2° C.
Description: as §1

[5] = Stability profile of Bendamustine Hydrochloride pre-lyophilized bulk solution in water (5 mg/mL) at 5 ± 3° C.

Q: With `Nc1ncn([C@@H]2O[C@H](CO)[C@@H](O)[C@H]2O)c(=O)n1` [Azacitidine] as the compound, how does the “degradation in RGU-CHO” value ([1]; manufacturing in water at −1° C. to 0° C.) read?
A: around 4%

Q: What about the RGU ([1]; 1st hour) of the same compound?
A: 0.175

Q: And the RGU-CHO ([1]; 1st hour)?
A: 1.767

Q: What about the “Specified Imp-1” value ([1]; 1st hour) of the same compound?
A: 0.025

Q: What about the “Specified Imp-2” value ([1]; 1st hour) of the same compound?
A: 0.051

Q: And the “Total Impurity (excluding RGU & RGU-CHO)” value ([1]; 1st hour)?
A: 0.076

Q: And the RGU ([1]; 2nd hour)?
A: 0.166

Q: What about the RGU-CHO ([1]; 2nd hour) of the same compound?
A: 2.283

Q: And the “Specified Imp-1” value ([1]; 2nd hour)?
A: 0.025

Q: What about the “Specified Imp-2” value ([1]; 2nd hour) of the same compound?
A: 0.051

Q: What about the “Total Impurity (excluding RGU & RGU-CHO)” value ([1]; 2nd hour) of the same compound?
A: 0.076

Q: And the RGU ([1]; 3rd hour)?
A: 0.175

Q: And the RGU-CHO ([1]; 3rd hour)?
A: 2.921

Q: And the “Specified Imp-1” value ([1]; 3rd hour)?
A: 0.026

Q: And the “Specified Imp-2” value ([1]; 3rd hour)?
A: 0.051

Q: What about the “Total Impurity (excluding RGU & RGU-CHO)” value ([1]; 3rd hour) of the same compound?
A: 0.077

Q: What about the RGU ([1]; 4th hour) of the same compound?
A: 0.191

Q: And the RGU-CHO ([1]; 4th hour)?
A: 4.112

Q: What about the “Specified Imp-1” value ([1]; 4th hour) of the same compound?
A: 0.027

Q: And the “Specified Imp-2” value ([1]; 4th hour)?
A: 0.051

Q: And the “Total Impurity (excluding RGU & RGU-CHO)” value ([1]; 4th hour)?
A: 0.078

Q: What about the RGU ([1]; Initial) of the same compound?
A: 0.158

Q: What about the RGU-CHO ([1]; Initial) of the same compound?
A: 0.891

Q: What about the “Specified Imp-1” value ([1]; Initial) of the same compound?
A: 0.027

Q: And the “Specified Imp-2” value ([1]; Initial)?
A: 0.051

Q: What about the “Total Impurity (excluding RGU & RGU-CHO)” value ([1]; Initial) of the same compound?
A: 0.078

Q: What about the Assay ([2]; 1st hour) of the same compound?
A: 101.00

Q: And the Imp-1 ([2]; 1st hour)?
A: 0.028

Q: And the Imp-2 ([2]; 1st hour)?
A: 0.066

Q: And the RGU ([2]; 1st hour)?
A: 0.145

Q: What about the RGU-CHO ([2]; 1st hour) of the same compound?
A: 0.326

Q: What about the “Total Impurity (excluding RGU & RGU-CHO)” value ([2]; 1st hour) of the same compound?
A: 0.094

Q: And the Assay ([2]; 2nd hour)?
A: 101.30

Q: What about the Imp-1 ([2]; 2nd hour) of the same compound?
A: 0.028

Q: And the Imp-2 ([2]; 2nd hour)?
A: 0.066

Q: And the RGU ([2]; 2nd hour)?
A: 0.145

Q: What about the RGU-CHO ([2]; 2nd hour) of the same compound?
A: 0.45

Q: And the “Total Impurity (excluding RGU & RGU-CHO)” value ([2]; 2nd hour)?
A: 0.094

Q: And the Assay ([2]; 3rd hour)?
A: 100.80

Q: What about the Imp-1 ([2]; 3rd hour) of the same compound?
A: 0.031

Q: What about the Imp-2 ([2]; 3rd hour) of the same compound?
A: 0.068

Q: What about the RGU ([2]; 3rd hour) of the same compound?
A: 0.146

Q: What about the RGU-CHO ([2]; 3rd hour) of the same compound?
A: 0.591

Q: And the “Total Impurity (excluding RGU & RGU-CHO)” value ([2]; 3rd hour)?
A: 0.099

Q: What about the Assay ([2]; 4th hour) of the same compound?
A: 101.30

Q: What about the Imp-1 ([2]; 4th hour) of the same compound?
A: 0.026

Q: What about the Imp-2 ([2]; 4th hour) of the same compound?
A: 0.067

Q: What about the RGU ([2]; 4th hour) of the same compound?
A: 0.146

Q: What about the RGU-CHO ([2]; 4th hour) of the same compound?
A: 0.730

Q: What about the “Total Impurity (excluding RGU & RGU-CHO)” value ([2]; 4th hour) of the same compound?
A: 0.093

Q: What about the Assay ([2]; 5th hour) of the same compound?
A: 101.00

Q: What about the Imp-1 ([2]; 5th hour) of the same compound?
A: 0.049

Q: And the Imp-2 ([2]; 5th hour)?
A: 0.069

Q: What about the RGU ([2]; 5th hour) of the same compound?
A: 0.148

Q: What about the RGU-CHO ([2]; 5th hour) of the same compound?
A: 0.839

Q: And the “Total Impurity (excluding RGU & RGU-CHO)” value ([2]; 5th hour)?
A: 0.118

Q: And the Assay ([2]; Initial)?
A: 101.80

Q: What about the Imp-1 ([2]; Initial) of the same compound?
A: 0.05

Q: And the Imp-2 ([2]; Initial)?
A: 0.068

Q: And the RGU ([2]; Initial)?
A: 0.143

Q: What about the RGU-CHO ([2]; Initial) of the same compound?
A: 0.164

Q: What about the “Total Impurity (excluding RGU & RGU-CHO)” value ([2]; Initial) of the same compound?
A: 0.118

Q: What about the Imp-1 ([3]; 1st hour) of the same compound?
A: 0.027

Q: And the Imp-2 ([3]; 1st hour)?
A: 0.050

Q: And the RGU ([3]; 1st hour)?
A: 0.314

Q: And the RGU-CHO ([3]; 1st hour)?
A: 6.966

Q: And the “Total Impurity (excluding RGU & RGU-CHO)” value ([3]; 1st hour)?
A: 0.077

Q: And the Imp-1 ([3]; 2nd hour)?
A: 0.028

Q: What about the Imp-2 ([3]; 2nd hour) of the same compound?
A: 0.050

Q: What about the RGU ([3]; 2nd hour) of the same compound?
A: 0.591

Q: What about the RGU-CHO ([3]; 2nd hour) of the same compound?
A: 10.495

Q: What about the “Total Impurity (excluding RGU & RGU-CHO)” value ([3]; 2nd hour) of the same compound?
A: 0.078

Q: What about the Imp-1 ([3]; Initial) of the same compound?
A: 0.027

Q: What about the Imp-2 ([3]; Initial) of the same compound?
A: 0.051

Q: What about the RGU ([3]; Initial) of the same compound?
A: 0.164

Q: What about the RGU-CHO ([3]; Initial) of the same compound?
A: 1.158

Q: What about the “Total Impurity (excluding RGU & RGU-CHO)” value ([3]; Initial) of the same compound?
A: 0.078

Q: What does the source list for `Cl.Cn1c(CCCC(=O)O)nc2cc(N(CCCl)CCCl)ccc21` [Bendamustine Hydrochloride]?
A: Bendamustine Dimer (RRT 1.23) ([4]; 1 hr): 0.05%; Bendamustine Ethyl Ester (BD 5) (RRT 1.38) ([4]; 1 hr): 0.003%; H-unk (Highest Unknown Impurity) ([4]; 1 hr): 0.03%; Monohydroxy Bendamustine (RRT 0.47) ([4]; 1 hr): 0.02%; Total Related Substances ([4]; 1 hr): 0.17%; Bendamustine Dimer (RRT 1.23) ([4]; 2 hr): 0.05%; Bendamustine Ethyl Ester (BD 5) (RRT 1.38) ([4]; 2 hr): 0.003%; H-unk (Highest Unknown Impurity) ([4]; 2 hr): 0.03%; Monohydroxy Bendamustine (RRT 0.47) ([4]; 2 hr): 0.03%; Total Related Substances ([4]; 2 hr): 0.18%; Bendamustine Dimer (RRT 1.23) ([4]; 3 hr): 0.05%; Bendamustine Ethyl Ester (BD 5) (RRT 1.38) ([4]; 3 hr): 0.003%; H-unk (Highest Unknown Impurity) ([4]; 3 hr): 0.03%; Monohydroxy Bendamustine (RRT 0.47) ([4]; 3 hr): 0.04%; Total Related Substances ([4]; 3 hr): 0.19%; Bendamustine Dimer (RRT 1.23) ([4]; 6 hr): 0.06%; Bendamustine Ethyl Ester (BD 5) (RRT 1.38) ([4]; 6 hr): 0.003%; H-unk (Highest Unknown Impurity) ([4]; 6 hr): 0.03%; Monohydroxy Bendamustine (RRT 0.47) ([4]; 6 hr): 0.07%; Total Related Substances ([4]; 6 hr): 0.23%; Bendamustine Dimer (RRT 1.23) ([4]; 8 hr): 0.06%; Bendamustine Ethyl Ester (BD 5) (RRT 1.38) ([4]; 8 hr): 0.003%; H-unk (Highest Unknown Impurity) ([4]; 8 hr): 0.03%; Monohydroxy Bendamustine (RRT 0.47) ([4]; 8 hr): 0.09%; Total Related Substances ([4]; 8 hr): 0.25%; Bendamustine Dimer (RRT 1.23) ([4]; Initial): 0.05%; Bendamustine Ethyl Ester (BD 5) (RRT 1.38) ([4]; Initial): 0.003%; H-unk (Highest Unknown Impurity) ([4]; Initial): 0.03%; Monohydroxy Bendamustine (RRT 0.47) ([4]; Initial): 0.01%; Total Related Substances ([4]; Initial): 0.15%; Bendamustine Dimer (RRT 1.23) ([5]; 4 hr): 0.06%; Bendamustine Ethyl Ester (BD 5) (RRT 1.38) ([5]; 4 hr): 0.01%; H-unk (Highest Unknown Impurity) ([5]; 4 hr): 0.01%; Monohydroxy Bendamustine (RRT 0.47) ([5]; 4 hr): 0.58%; Total Related Substances ([5]; 4 hr): 0.69%; Bendamustine Dimer (RRT 1.23) ([5]; 8 hr): 0.10%; Bendamustine Ethyl Ester (BD 5) (RRT 1.38) ([5]; 8 hr): 0.01%; H-unk (Highest Unknown Impurity) ([5]; 8 hr): 0.01%; Monohydroxy Bendamustine (RRT 0.47) ([5]; 8 hr): 1.59%; Total Related Substances ([5]; 8 hr): 1.77%; Bendamustine Dimer (RRT 1.23) ([5]; 24 hr): 0.19%; Bendamustine Ethyl Ester (BD 5) (RRT 1.38) ([5]; 24 hr): 0.01%; H-unk (Highest Unknown Impurity) ([5]; 24 hr): 0.01%; Monohydroxy Bendamustine (RRT 0.47) ([5]; 24 hr): 4.13%; Total Related Substances ([5]; 24 hr): 4.37%; Bendamustine Dimer (RRT 1.23) ([5]; Initial): 0.04%; Bendamustine Ethyl Ester (BD 5) (RRT 1.38) ([5]; Initial): 0.00%; H-unk (Highest Unknown Impurity) ([5]; Initial): 0.01%; Monohydroxy Bendamustine (RRT 0.47) ([5]; Initial): 0.12%; Total Related Substances ([5]; Initial): 0.20%
